Assay results reported in patent US8759481B2, “Peptide vaccines for cancers expressing tumor-associated antigens” (Oncotherapy Science, Inc., priority 2007, dated 2014).

System: CD8+ T cells (HLA-A*0201 donors)
Assay: In vitro CTL induction with peptide-pulsed DCs (positive donor number)
Format: cell-based, human
Settings: HLA-A*0201, 9-mer peptides derived from INHBB; positive/total donors
Procedure, shortened: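 Monocyte-derived DCs (GM-CSF/IL-4, 7 days) pulsed with 20 μg/ml peptide plus β2-microglobulin, MMC-inactivated, co-cultured 1:20 with autologous CD8+ T cells with IL-7, then IL-2; restimulated days 7 and 14. CTL activity tested against peptide-pulsed T2 cells on day 21; value = positive donors/total donors.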

VQCDSCQEL
positive donor number: 0/1
